# Where a name gives a salt, the structure may show the parent alone.
# Biological target: full-length human PRMT8 isoform 1 (Homo sapiens, UniProt Q9NR22)
# Test: PRMT8 biochemical assay (3H-SAM Flashplate, histone H4 31-45 peptide)
# Details: 1.5 nM PRMT8, 30 min preincubation, 150 nM peptide
# Source text: S-adenosylmethionine (SAM), S-adenosylhomocysteine (SAH), bicine, Tween20, dimethylsulfoxide (DMSO), bovine skin gelatin (BSG), isopropyl-β-D-thiogalactopyranoside (IPTG), and Tris(2-carboxyethyl)phosphine hydrochloride solution (TCEP) were purchased from Sigma-Aldrich at the highest level of purity possible. ^3H-SAM was purchase from American Radiolabeled Chemicals with a specific activity of 80 Ci/mmol. 384-well streptavidin Flashplates were purchased from PerkinElmer.
# Peptide representative of human histone H4 residues 31-45 was synthesized with an N-terminal linker-affinity tag motif and a C-terminal amide cap by 21st Century Biochemicals. The peptide was purified by high-performance liquid chromatography (HPLC) to greater than 95% purity and confirmed by liquid chromatography mass spectrometry (LC-MS). The sequence was Biot-Ahx-[…]-amide (SEQ ID NO.:8).
# The resulting construct encodes an N-terminal GST tag and a thrombin cleavage sequence
# E. coli (BL21(DE3) Gold, Stratagene) made competent by the CaCl2 method were transformed with the PRMT8 construct and ampicillin selection. Protein over-expression was accomplished by growing the PRMT8 expressing E. coli clone and inducing expression with 0.3 mM IPTG at 16° C. The culture was grown for 12 hours, harvested by centrifugation, and stored at −80° C. for purification.
# GST-tagged PRMT8 was eluted with 50 mM Tris, 2 mM glutathione, pH 7.8. Pooled fractions were cleaved by thrombin (10U) and dialysed in buffer A. GST was removed by reloading the cleaved protein sample onto glutathione sepharose column and PRMT8 was collected in the flow-through fractions. PRMT8 was purified further by ceramic hydroxyapatite chromatography. The column was washed with 50 mM phosphate buffer, 100 mM NaCl, 5% glycerol, 5 mM […], pH 7.8 and PRMT8 was eluted by 100 mM phosphate in the same buffer. Protein was concentrated and buffer was exchanged to 50 mM Tris, 300 mM NaCl, 10% glycerol, 5 mM β-mercaptoethanol, pH 7.8 by ultrafiltration. The purity of recovered protein was 89%.
# General Procedure for PRMT8 Enzyme Assays on Peptide Substrates.
# The assays were all performed in a buffer consisting of 20 mM Bicine (pH=7.6), 1 mM TCEP, 0.005% BSG, and 0.002% Tween 20, prepared on the day of use. Compounds in 100% DMSO (1 ul) were spotted into a polypropylene 384-well V-bottom plates (Greiner) using a Platemate Plus outfitted with a 384-channel head (Thermo Scientific). DMSO (1 ul) was added to Columns 11, 12, 23, 24, rows A-H for the maximum signal control and 1 ul of SAH, a known product and inhibitor of PRMT8, was added to columns 11, 12, 23, 24, rows I-P for the minimum signal control. A cocktail (40 ul) containing the PRMT8 enzyme was added by Multidrop Combi (Thermo-Fisher). The compounds were allowed to incubate with PRMT8 for 30 min at room temperature, then a cocktail (10 ul) containing ^3H-SAM and peptide was added to initiate the reaction (final volume=51 ul). The final concentrations of the components were as follows: PRMT8 was 1.5 nM, ^3H-SAM was 50 nM, non-radiolabeled SAM was 550 nM, peptide was 150 nM, SAH in the minimum signal control wells was 1 mM, and the DMSO concentration was 2%. The assays were stopped by the addition of non-radiolabeled SAM (10 ul) to a final concentration of 400 uM, which dilutes the ^3H-SAM to a level where its incorporation into the peptide substrate is no longer detectable. 50 ul of the reaction in the 384-well polypropylene plate was then transferred to a 384-well Flashplate and the biotinylated peptides were allowed to bind to the streptavidin surface for at least 1 hour before being washed once with 0.1% Tween20 in a Biotek ELx405 plate washer. The plates were then read in a PerkinElmer TopCount plate reader to measure the quantity of ^3H-labeled peptide bound to the Flashplate surface, measured as disintegrations per minute (dpm) or alternatively, referred to as counts per minute (cpm). […]
# full-length human PRMT8 isoform 1, sequence (Q9NR22 whole entry, canonical isoform): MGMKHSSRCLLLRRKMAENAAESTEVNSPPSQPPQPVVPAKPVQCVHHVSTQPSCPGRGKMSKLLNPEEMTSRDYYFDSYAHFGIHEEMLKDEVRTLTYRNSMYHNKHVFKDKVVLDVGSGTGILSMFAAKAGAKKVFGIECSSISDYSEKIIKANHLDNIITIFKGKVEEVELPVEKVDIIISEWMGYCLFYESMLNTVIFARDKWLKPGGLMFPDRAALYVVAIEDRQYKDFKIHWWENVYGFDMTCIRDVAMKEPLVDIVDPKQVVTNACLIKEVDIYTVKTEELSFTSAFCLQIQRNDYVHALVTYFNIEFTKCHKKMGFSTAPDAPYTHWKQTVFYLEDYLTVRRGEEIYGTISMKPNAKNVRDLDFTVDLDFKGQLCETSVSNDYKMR
row,Structure (SMILES),IC50 [nM]
1,"CCC1CC(c2n[nH]cc2CN(C)CCNC)CC(C(=O)NCCOC)C1(C)C (stereo not shown) [compound 21, 3-ethyl-N-(2-methoxyethyl)-2,2-dimethyl-5-[4-([methyl[2-(methylamino)ethyl]amino]methyl)-1H-pyrazol-3-yl]cyclohexane-1-carboxamide dihydrochloride]",614
2,"CCC1(CC)CC2(CCC(c3n[nH]cc3CN(C)CCNC)CC2)N(C)C1=O (stereo not shown) [compound 22, 3,3-diethyl-1-methyl-8-(4-((methyl(2-(methylamino)ethyl)amino)methyl)-1H-pyrazol-3-yl)-1-azaspiro[4.5]decan-2-one]",20.3
3,"CNCCN(C)Cc1c[nH]nc1[C@H]1CC[C@@H](COCC(F)(F)F)CC1 [compound 23, N1,N2-dimethyl-N1-((3-((1s,4s)-4-((2,2,2-trifluoroethoxy)methyl)cyclohexyl)-1H-pyrazol-4-yl)methyl)ethane-1,2-diamine]",91.8
4,"CNCCN(C)Cc1c[nH]nc1[C@H]1CC[C@H](COCC(F)(F)F)CC1 [compound 24, N1,N2-dimethyl-N1-((3-((1r,4r)-4-((2,2,2-trifluoroethoxy)methyl)cyclohexyl)-1H-pyrazol-4-yl)methyl)ethane-1,2-diamine]",18.3
5,CNCCN(C)Cc1cn(C)nc1C1CCC(C)(C)[C@@H](C(=O)NCC(C)C)C1 (stereo partly shown) [compound 25],2790
6,"CNCCNCc1c[nH]nc1[C@H]1CC[C@]2(CC1)CC(C)(C)CO2 [compound 29, N1-((3-((5r,8r)-3,3-dimethyl-1-oxaspiro[4.5]decan-8-yl)-1H-pyrazol-4-yl)methyl)-N2-methylethane-1,2-diamine]",258
7,"CCC1(CC)C[C@]2(CC[C@H](c3n[nH]cc3CN(C)CCNC)CC2)OC1=O [compound 33, (5s,8s)-3,3-diethyl-8-(4-((methyl(2-(methylamino)ethyl)amino)methyl)-1H-pyrazol-3-yl)-1-oxaspiro[4.5]decan-2-one]",95.8
8,"CCC1(CC)C[C@]2(CC[C@@H](c3n[nH]cc3CN(C)CCNC)CC2)OC1=O [compound 34, (5r,8r)-3,3-diethyl-8-(4-((methyl(2-(methylamino)ethyl)amino)methyl)-1H-pyrazol-3-yl)-1-oxaspiro[4.5]decan-2-one]",146
9,"CCCOCC1(COCCC)CCC(c2n[nH]cc2CN(C)CCNC)CC1 [compound 36, N^1-((3-(4,4-bis(propoxymethyl)cyclohexyl)-1H-pyrazol-4-yl)methyl)-N^1,N^2-dimethylethane-1,2-diamine]",12.4
10,"CC[C@]12CC[C@](CC)(C[C@H](c3n[nH]cc3CN(C)CCNC)C1)O2 [compound 37, N1-((3-((1R,3r,5S)-1,5-diethyl-8-oxabicyclo[3.2.1]octan-3-yl)-1H-pyrazol-4-yl)methyl)-N1,N2-dimethylethane-1,2-diamine]",45.5
11,"CNCCN(C)Cc1ccnn1[C@H]1CC[C@]2(CC1)CC(C)(C)CO2 [compound 50, N1-((1-((5r,8r)-3,3-dimethyl-1-oxaspiro[4.5]decan-8-yl)-1H-pyrazol-5-yl)methyl)-N1,N2-dimethylethane-1,2-diamine]",32.2
12,CNCCN(C)Cc1c(C)[nH]nc1[C@H]1CC[C@]2(CC1)CC(C)(C)CO2 [compound 58],55.1
13,CCOCC1(COCC)CC=C(c2n[nH]cc2CN(C)CCNC)CC1 [compound 60],22.5
14,CNCCN(C)Cc1scnc1[C@H]1CC[C@@]2(CC1)CC(C)(C)CO2 [compound 62],9.08
15,CNCCN(C)Cc1nn(C)nc1[C@H]1CC[C@@]2(CC1)CC(C)(C)CO2 [compound 64],25.3
16,CNCCN(C)Cc1nn[nH]c1[C@H]1CC[C@@]2(CC1)CC(C)(C)CO2 [compound 67],19.8
17,CNCCN(C)Cc1nncn1[C@H]1CC[C@@]2(CC1)CC(C)(C)CO2 [compound 68],3480
18,CNCCN(C)Cc1nccn1[C@H]1CC[C@@]2(CC1)CC(C)(C)CO2 [compound 69],273
19,CNCCN(C)Cc1nnc(C)n1[C@H]1CC[C@@]2(CC1)CC(C)(C)CO2 [compound 71],4320
20,CNCCN(C)Cc1nc(C)sc1[C@H]1CC[C@@]2(CC1)CC(C)(C)CO2 [compound 77],27.7
21,CNCCN(C)Cc1sc(C)nc1[C@H]1CC[C@@]2(CC1)CC(C)(C)CO2 [compound 78],33.8
22,CN(CCN)Cc1nn(C)cc1[C@H]1CC[C@@]2(CC1)CC(C)(C)CO2 [compound 80],12.1
23,CNCCN(C)Cc1nn(C)cc1[C@H]1CC[C@@]2(CC1)CC(C)(C)CO2 [compound 81],30.9
24,CNCCN(C)Cc1scnc1[C@H]1CC[C@]2(CC1)CC(C)(C)CO2 [compound 84],24.2

# Results, then the compound that gave them:
row,IC50 [nM],Structure (SMILES)
1,20.7,"CNCCNCc1c[nH]nc1[C@H]1CC[C@@]2(CC1)CC(C)(C)CO2 [compound 28, N1-((3-((5s,8s)-3,3-dimethyl-1-oxaspiro[4.5]decan-8-yl)-1H-pyrazol-4-yl)methyl)-N2-methylethane-1,2-diamine]"
2,187,"CNCCN(C)Cc1c[nH]nc1C1CCC(C)(C)[C@H](COCCCOC)C1 (stereo partly drawn) [compound 30, {2-[({3-[(3R)-3-[(3-methoxypropoxy)methyl]-4,4-dimethylcyclohexyl]-1H-pyrazol-4-yl}methyl)(methyl)amino]ethyl}(methyl)amine]"
3,325,"CCOC[C@@H]1CC(c2n[nH]cc2CN(C)CCNC)CCC1(C)C (stereo partly drawn) [compound 31, {2-[({3-[(3R)-3-(ethoxymethyl)-4,4-dimethylcyclohexyl]-1H-pyrazol-4-yl}methyl)(methyl)amino]ethyl}(methyl)amine]"
4,291,"CNCCN(C)Cc1c[nH]nc1C1CCC(C)(C)[C@H](CO)C1 (stereo partly drawn) [compound 32, [(1R)-2,2-dimethyl-5-[4-({methyl[2-(methylamino)ethyl]amino}methyl)-1H-pyrazol-3-yl]cyclohexyl]methanol]"
5,110,"CNCCN(C)Cc1c[nH]nc1C1CCC(C)(C)[C@H](COCCOC)C1 (stereo partly drawn) [compound 35, {2-[({3-[(3R)-3-[(2-methoxyethoxy)methyl]-4,4-dimethylcyclohexyl]-1H-pyrazol-4-yl}methyl)(methyl)amino]ethyl}(methyl)amine]"
6,177,"CC[C@]12CC[C@](CC)(C[C@@H](c3n[nH]cc3CN(C)CCNC)C1)O2 [compound 38, N1-((3-((1R,3s,5S)-1,5-diethyl-8-oxabicyclo[3.2.1]octan-3-yl)-1H-pyrazol-4-yl)methyl)-N1,N2-dimethylethane-1,2-diamine]"
7,14.2,"Cc1[nH]nc([C@H]2CC[C@@]3(CC2)CC(C)(C)CO3)c1CN(C)CCN [compound 51, N1-((3-((5s,8s)-3,3-dimethyl-1-oxaspiro[4.5]decan-8-yl)-5-methyl-1H-pyrazol-4-yl)methyl)-N1-methylethane-1,2-diamine]"
8,23.1,"Cc1[nH]nc([C@H]2CC[C@]3(CC2)CC(C)(C)CO3)c1CN(C)CCN [compound 52, N1-((3-((5r,8r)-3,3-dimethyl-1-oxaspiro[4.5]decan-8-yl)-5-methyl-1H-pyrazol-4-yl)methyl)-N1-methylethane-1,2-diamine]"
9,32.7,CNCCN(C)Cc1c(C)[nH]nc1[C@H]1CC[C@@]2(CC1)CC(C)(C)CO2 [compound 57]
10,17.5,Cc1[nH]nc(C2CCC3(CC2)CC(C)(C)CO3)c1CN(C)CCN (stereo not shown) [compound 59]
11,> 10000,CNCCN(C)Cc1cnnn1[C@H]1CC[C@@]2(CC1)CC(C)(C)CO2 [compound 65]
12,15.7,CNCCN(C)Cc1cncn1[C@H]1CC[C@@]2(CC1)CC(C)(C)CO2 [compound 76]
13,18.5,CNCCN(C)Cc1ncsc1[C@H]1CC[C@@]2(CC1)CC(C)(C)CO2 [compound 83]

# — patent publication US20170291905A1, “ARGININE […] INHIBITORS AND USES THEREOF” (Epizyme, Inc., priority 2014, published 2017)
